Measurements published in a melting point compilation (Tetko et al.; mined from patent text by program, amines drawn as free bases though some values may be those of a salt).

Row | SMILES | melting point
1 | Cc1cc(-n2ccnc2)c2cccc(OCc3c(Cl)ccc(S(=O)(=O)N4CCC[C@H]4C(=O)NCCc4cccnc4)c3Cl)c2n1 | 117 °C
2 | O=C(O)CCCCCCCCC1=CC(O)CC1=O (centres undefined) | 58 to 66 °C
3 | CCN(CC)C(=O)c1cccc(F)c1[Si](C)(C)C(C)(C)C | 50 to 51 °C
4 | CC(O)c1ccc(C(O)C(C)(C)C)cc1 (centres undefined) | 118 to 121 °C
5 | CCCn1cc2c(C3C(=O)Nc4ccc(Br)cc43)nc(NCCc3ccccn3)nc2n1 (centres undefined) | 283 to 291 °C
6 | COC(=O)CCCCCCCCCCCCc1ccccc1 | 30.5 to 31.5 °C
7 | CNC(=O)NS(=O)(=O)c1ccccc1OCCCl | 218 to 222 °C
8 | CC(C)c1ccc(C#CC(C)N(O)C(N)=O)cc1 (centres undefined) | 154 to 156 °C
9 | CS(=O)C1C=Nc2cc(F)ccc2C1=O (centres undefined) | 265 °C
10 | O=C(Nc1ccc(O)cc1)Nc1cc(Cl)ccc1C(=O)O | 212 to 214 °C
11 | CS(=O)(=O)c1ccc(Oc2cc(OCc3ccccc3)c3[nH]c(C4=NCC(CC(=O)O)S4)cc3c2)cc1 (centres undefined) | 218 to 219 °C
12 | O=C(CCl)Nc1cccc([N+](=O)[O-])c1 | 110 to 112 °C
13 | N#Cc1ccc(-c2c[nH]cn2)cc1 | 164 to 167 °C
14 | NS(=O)(=O)c1cc2[nH]c(=O)ccc2s1 | > 300 °C
15 | COc1ccc(Cn2c(=O)[nH]c3nccnc3c2=O)cc1 | 233 to 234 °C
16 | O=S(=O)(Nc1ccc(Oc2ccc3cccnc3c2)cc1)c1ccc(Cl)cc1 | 208 °C
17 | CCCCn1c(=O)c2[nH]c(/C=C/c3cc(OC)c(OC)c(OC)c3)nc2n(CCCC)c1=O | 206 to 207 °C
18 | CC1(C)Oc2ccc([N+](=O)[O-])cc2O1 | 89 to 91 °C
19 | CN1C(=O)CCC(C)(C)c2cc([N+](=O)[O-])ccc21 | 115 °C
20 | CCOC(=O)C=Cc1ccc2c(c1)CC(CNC(=O)OC(C)(C)C)CC2 (centres undefined) | 117 to 119 °C

Row | SMILES | melting point
21 | CC(C)(C)c1ccc(N2C(=O)CCC2=O)c([N+](=O)[O-])c1 | 135 to 138 °C
22 | CC(C(=S)c1ccnc(NC=O)c1)S(C)=O (centres undefined) | 123 to 125 °C
23 | CNc1ncccc1[N+](=O)[O-] | 52 to 53 °C
24 | c1ccc(-c2nc(-c3ccc4c(c3)OCO4)c3cc4c(cc3n2)OCO4)cc1 | 225 to 230 °C
25 | CCN1CCNC1=C[N+](=O)[O-] | 110 to 111 °C
26 | Cc1cc2c(c3c1NC(=O)CC3)OC(CN)C2 (centres undefined) | > 300 °C
27 | C[C@@H](S[C@H]1CO[C@H](c2ccc(C(=O)Nc3ccncc3)cc2)OC1)[C@](O)(Cn1cncn1)c1ccc(F)cc1F | 133 °C
28 | COc1ccc(CN(C)CCCCc2ccc(NC(=O)c3cccc4c(=O)c5cccc([N+](=O)[O-])c5[nH]c34)cc2)cc1OC | 174 °C
29 | CC1(CNC(=O)OC(C)(C)C)CN(c2cccc(Cl)n2)C1 | 108 to 111 °C
30 | CN1N=C(Br)C2N=C(Cl)N=C(O)C21 (centres undefined) | 260 to 262 °C
31 | Fc1ccc2sc(-c3ccc(CBr)cc3)nc2c1 | 138 to 141 °C
32 | CCOC(=O)c1cnc2ccc(OC)nc2c1Nc1ccc(OC)cc1 | 115 to 117 °C
33 | CC(=O)c1oc2ccc(C)cc2c1C | 66.3 to 66.5 °C
34 | C#CCNC1=Nc2ccc(Cl)cc2C(c2ccccc2)=NC1 | 202 °C
35 | CCOC(=O)c1sc(C)nc1SC(=O)N(C)C | 84.5 to 85.5 °C
36 | COc1c(Cl)cc(-c2cc(F)c(F)cc2-c2ccc(S(N)(=O)=O)cc2)cc1Cl | 146 °C
37 | CCc1cc2c(cc1CC)C(=O)C(N=[N+]=[N-])=CC2=O | 74 to 76 °C
38 | O=C1Cc2cc(-c3cccc(Cl)c3)ccc2N1 | 169 to 171 °C
39 | CCOCc1cc2c(N=C=S)cccc2cn1 | 66 °C
40 | COc1ccc(-c2cnc3cc4cn(Cc5ccccc5)nc4cc3n2)cc1F | 225 to 227 °C

Row | SMILES | melting point
41 | NS(=O)(=O)c1cccc(-c2cccc(-c3nc(-c4ccc(C(F)(F)F)cc4)cc(C(F)F)n3)c2)c1 | 204 °C
42 | N#Cc1cc2sccc2nc1I | 190 to 191 °C
43 | CCCCOc1cc(/C=C(\OCC)C(=O)O)ccc1OCCc1ccc(OCC)c(Cl)c1 | 109 °C
44 | CCc1nnc(-c2ccc(N(C)C)cc2)n1-c1ccc(OC)cc1 | 148 °C
45 | COc1ccc(C2(c3ccc(OC)cc3)CCN(C[C@H]3CN(C)[C@@H]4Cc5c[nH]c6cccc(c56)[C@@]4(OC)C3)CC2)cc1 | 215 to 222 °C
46 | N#Cc1ccc(F)cc1C(F)(F)C(F)(F)c1ccccc1 | 68 to 70 °C
47 | CS(=O)(=O)c1ccc(-c2ccccc2-c2ccc(F)c(Cl)c2)cc1 | 180 to 181 °C
48 | O=Cc1cccc(-c2nc3sccn3c2-c2ccnc(N[C@@H]3CCCN(S(=O)(=O)c4ccc(Cl)cc4)C3)n2)c1 | 124 to 126 °C
49 | COc1ccc(S(=O)(=O)Nc2cc(F)cc3c2Nc2ccc(O)cc2CO3)cc1 | 201 to 210 °C
50 | Cc1cc(-c2ccc(C(F)(F)F)nc2)nc(-c2cccc(-c3cccc(S(N)(=O)=O)c3)n2)n1 | 254 °C
51 | Cc1cc(NC(=O)C(C)(O)COc2ccc(CC#N)cc2)ccc1[N+](=O)[O-] (centres undefined) | 143 to 145 °C
52 | Cc1ccccc1-c1c(C#N)nn(-c2c(Cl)cc(C(F)(F)F)cc2Cl)c1N | 199 to 202 °C
53 | N#Cc1c[nH]c2ccc([N+](=O)[O-])cc12 | 186 to 190 °C
54 | O=C1c2c(O)cncc2C(=O)c2c(Cl)ccc(F)c21 | 227 to 228 °C
55 | Cc1ccc(Nc2nc(Cl)nc(NC3CCCCCC3)n2)cc1F | 149 °C
56 | CCOC(=O)c1nn(Cc2cn(C(c3ccccc3)(c3ccccc3)c3ccccc3)cn2)c2cc(OC)c(OC)cc12 | 184 to 186 °C
57 | Nc1nc(Cl)cc(Oc2ccc3c(C(=O)Nc4cccc(C(F)(F)F)c4)cccc3c2)n1 | 234 to 236 °C
58 | O=C(O)c1cc2ccoc2nc1C(=O)O | 189 to 192 °C
59 | CCN(CC)S(=O)(=O)c1ccc(-c2cnc3[nH]c(CCc4cc(OC)ccn4)nc3c2)cc1 | 127 to 129 °C

The next lines start with the values.

Row | melting point | SMILES
60 | 135 °C | CN1C(=O)C(CCCCNC(=O)OCc2ccccc2)NC1=S (centres undefined)
61 | 178 to 181 °C | CC(=O)NC[C@H]1CN(c2ccc(N3CCN(C(=O)CCCC(=O)c4ccc(NC(=O)CN)cc4)CC3)c(F)c2)C(=O)O1
62 | 146 to 149 °C | COc1ccccc1C1(c2ccccc2OC)CC1
63 | 77 to 79 °C | CC(C)C(CN1CCCC1)C(=O)c1cc(-c2ccccc2)no1 (centres undefined)
64 | 133 to 135 °C | O=C(O)C(=O)c1ccc(OCCCCOc2ccc3ccccc3c2)cc1
65 | 83 to 85 °C | O=C(c1ccccc1)N1CCC(CO)CC1
66 | 215 to 217 °C | CC(c1oc2ccccc2c(=O)c1-c1cccc(F)c1)n1nc(-c2ccc(C=O)o2)c2c(N)ncnc21 (centres undefined)
67 | 123 to 127 °C | NC(c1ccccc1)c1ccc(C(N)c2ccccc2)cc1 (centres undefined)
68 | 120 °C | O=C(O)c1ccc(CNC(=O)C2Cc3ccccc3N2S(=O)(=O)c2ccc(-c3cccc(C(F)(F)F)c3)cc2)cc1 (centres undefined)
69 | 69.4 °C | O=Cc1nccnc1OCc1ccccc1
70 | 233 to 234 °C | CC(C)n1c(-c2ccc(F)cc2)c(/C=C/C(=O)O)c2ccccc2c1=O
71 | 129 to 132 °C | COc1ccc(N2CCN(c3c(C)c(C)c4c(c3C)CC(C)(CN3CCCC3)O4)CC2)cc1 (centres undefined)
72 | 156 to 158 °C | Cc1cc2c(cc1Cl)N(C(=O)CN1CCN(C)CC1)c1ccccc1N(C)S2(=O)=O
73 | 128 to 129 °C | O=C(C1CC1)N1CC[C@H](c2ccccc2)[C@H](O)C1 (relative stereo)
74 | 78 to 80 °C | COCCO[C@H]1c2ccn3c(C)c(C)nc3c2N[C@H](c2ccccc2)[C@H]1OC(=O)c1ccccc1
75 | 196 to 200 °C | CCOC(=O)NN=Cc1c[nH]c(-c2ccccc2)n1
76 | 79 to 80 °C | Cc1cc(C(O)c2ccccc2)sc1C (centres undefined)
77 | 121 to 123 °C | Cc1cc(-c2cccc(NC(=O)C3CCC3)c2)n2ncc(C(=O)c3cccs3)c2n1
78 | 190 to 191 °C | CN(C)C(=O)NCCc1cccc(-c2nc(=O)c3ccccc3s2)n1
79 | 107 to 109 °C | CC(C)c1cccc(C(C)C)c1NC(=O)CN1CC2(CCCCC2)N(c2ccccc2)C1=O

Row | melting point | SMILES
80 | > 260 °C | Nc1ccc(-c2nc3c(s2)C(=O)c2ccccc2C3=O)o1
81 | 175 to 177 °C | COc1c(C2CCN(CCCCNC(=O)c3ccc(-c4ccc(Cl)s4)nc3)CC2)ccc2c1CCCC2
82 | 165 to 166 °C | CC(C)(C)OC(=O)Nc1cccc(OC2CCN(c3ccncc3)CC2)c1
83 | 241 °C | CCOC(=O)C1=C(C)Nc2nc(N3CCOCC3)nc(N3CCOCC3)c2C1c1ccccc1Cl (centres undefined)
84 | 205 to 208 °C | COc1ccc(Cl)c2c1c1c(n2Cc2ccccc2)CCCC1C(N)=O (centres undefined)
85 | 169 to 172 °C | COc1cc(/C=C/C=C/C(=O)NCCN2CCC(c3c[nH]c4ccccc34)CC2)cc(OC)c1OC(C)=O
86 | 117 to 118 °C | CC1(c2cccc(NS(C)(=O)=O)c2)C2CN(Cc3ccccc3)CC21 (centres undefined)
87 | 63 to 64 °C | COC(=O)c1ccc(CN2CCN(CC(C)O)CC2)cc1 (centres undefined)
88 | 146 to 149 °C | CCCCCCC(Oc1ccc(NC(=O)NC(=O)c2c(Cl)cccc2Cl)cc1)c1ccccc1 (centres undefined)
89 | 152 to 154 °C | O=S(=O)(c1ccccc1)N1CCC(C(O)(c2ccc(F)c(F)c2)c2ccc(F)c(F)c2)CC1
90 | 105 to 108 °C | CN1CC(CCCl)Oc2ccccc2C1=S (centres undefined)
91 | 96 to 98 °C | CN1C(=O)C2(COc3cc4c(cc32)OCCO4)c2c(NC(=O)C3CCCCC3)cccc21 (centres undefined)
92 | 188 °C | OC(CN1CCN(Cc2ccc(F)cc2)CC1)Cn1c2ccccc2c2cc(-c3ccccc3)ccc21 (centres undefined)
93 | 143 to 144 °C | O=C(c1ccc(Cn2cnc3ccncc32)cc1)N1CCOCC1
94 | 130 to 131 °C | Cc1cc2c(c(C)c1NC(=O)CC(C)(C)C)C(c1ccc(C(C)C)cc1)CO2 (centres undefined)
95 | 205 to 208 °C | CN1CCNC1=NC(=S)Nc1ccccc1
96 | 65 to 67 °C | CC(=O)O[C@@H](c1cnnn1-c1ccccc1)[C@@H](CCN1CCC(N2CCCCC2=O)CC1)c1ccc(Cl)c(Cl)c1 (racemic)
97 | 182 °C | O=S1(=O)N(CCCN2CCN(c3ccc(O)cc3)CC2)c2cccc3c2N1CCC3
98 | 118 to 119 °C | CC(=O)OC(CF)c1ccccc1S(=O)(=O)NC(C)(C)C (centres undefined)
99 | 74 to 76 °C | COC(=O)COc1ccc(OC2CCN(c3ccncc3)CC2)cc1
